Reference: US4808580A, “Naphtho[1,2-b][1,4]thiazepin-4(5H)-ones and use thereof in treatment of ischemia and blood pressure lowering” (Hoffmann-La Roche Inc., priority 1987, dated 1989)
Structures can show the parent of a compound that is named as a salt.

System: Guinea Pig Ileum
Experiment: Guinea pig ileum assay - tonic contraction (K+-induced contraction of longitudinal muscle; calcium channel blocking activity)
Assay type: cell-based
Conditions: Cavia porcellus
Protocol: GUINEA PIG ILEUM ASSAY--TONIC CONTRACTION
Male guinea-pigs weighing from 300-400 grams were stunned and bled. The abdomen was opened and 10-15 cm of terminal ileum was carefully removed and cleaned and placed in Tyrode's Solution of the following composition: NaCl (8 g/l), KCl (0.2 g/l), MgCl2 (0.2 g/l.), CaCl2 (0.2 g/l), NaH2 PO4 (0.05 g/l), NaHCO3 (1.0 g/l) and Glucose (1 g/l). The solution was maintained at 37° C. and gassed with 95% O2 and 5% CO2. Portions of the ileum were placed over a glass rod, a shallow incision was made the length of the mesenteric attachment just severing the outer-longitudinal muscle layer. The longitudinal muscle was separated from the underlying circular muscle by gentle dissection (Rang, H. P. Annals of N.Y. Academy of Science Vol. 144, page 756, (1964)). The tissue was fixed at one end to a tissue holder, the other end was connected by a thread to a force transducer and suspended in a muscle bath containing Tyrode's Solution maintained at 37° C. and gassed with 95% O2 and 5% CO2. An initial tension of 500 mg was applied and the tissue allowed to equilibrate for 60 minutes prior to the start of the study. During this period the tissue was washed every 16 minutes. Each preparation, at 16 minute intervals, was challenged with KCl sufficient to yield a bath K^+ concentration of 80 mMK for 2 minutes, then washed with fresh solution. The 16 minute interval between K^+ challenges was maintained throughout the study. Upon stabilization of the responses to the K^+ challenge the test compound (potential calcium entry antagonist) was introduced into the bath 2 minutes prior to and during the 2 minute exposure to K^+ after which the bath was cleared and washed with fresh solution. Logarithmically increasing doses (up to 10^-4 M) of the potential antagonist were administered as the study progressed.
The measure of compound's ability to inhibit the tonic contraction of muscle is a measure of its activity as a calcium channel blocking agent.

IC50	SMILES
390 nM	COc1ccc([C@@H]2Sc3ccc4ccccc4c3N(CCN(C)C)C(=O)[C@@H]2OC(C)=O)cc1 [D, cis-(+)-3-(acetyloxy)-2,3-dihydro-5-[2-(dimethylamino)ethyl]-2-(4-methoxyphenyl)naphtho[2,1-b][1,4]thiazepin-4(5H)-one (E)-2-butendioate]
400 nM	COc1ccc([C@@H]2Sc3ccc4ccccc4c3N(CCN(C)C)C(=O)[C@@H]2O)cc1 (relative stereo) [A, cis-rac-2,3-dihydro-3-hydroxy-5-[2-(dimethylamino)ethyl]-2-(4-methoxyphenyl)naphtho[2,1-b][1,4]thiazepin-4(5H)-one hydrochloride]
450 nM	COc1ccc([C@@H]2Sc3ccc4ccccc4c3N(CCN(C)C)C(=O)[C@@H]2OC(C)=O)cc1 (relative stereo) [B, cis-rac-3-(acetyloxy)-2,3-dihydro-5-[2-(dimethylamino)ethyl]-2-(4-methoxyphenyl)naphtho[2,1-b][1,4]thiazepin-4(5H)-one (E)-2-butendioate]
230 nM	COc1ccc([C@@H]2Sc3ccc4ccccc4c3N(CCN(C)C)C(=O)[C@@H]2O)cc1 [C, cis-(+)-2,3-dihydro-3-hydroxy-5-[2-(dimethylamino)ethyl]-2-(4-methoxyphenyl)naphtho[2,1-b][1,4]thiazepin-4(5H)-one hydrochloride semihydrate]
